{
  "source": "patent US9968093B1",
  "about": "“Development and manufacturing process of powdered additive for its use in coatings or substrates to repel, reduce and control insects” (priority 2016, dated 2018)",
  "origin": "cited, not measured here",
  "key": {"[1]": {"conditions": "for Toxicity: toxicity in words"}, "[2]": {"conditions": "for Stability in aqueous medium, in words: pH as stated in the value; for Time to decompose (Mean life): aqueous medium"}},
  "note": "“Also recorded” adds a separate entry of the source. Like-named read-outs stand apart in the source and are kept apart here.",
  "data": [
    {"smiles": "CNC(=O)Oc1cccc2c1OC(C)(C)C2", "note": "[Carbofuran]", "values": [
      {"measurement": "Toxicity (group)", "setting": "[1]", "value": "Group II"},
      {"measurement": "Toxicity", "setting": "[1]", "value": "Mildly toxic"}
    ]},
    {"smiles": "O=C(NC(=O)c1c(F)cccc1F)Nc1ccc(Cl)cc1", "note": "[Diflubenzuron]", "values": [
      {"measurement": "Stability in aqueous medium, in words", "setting": "[2]", "value": "Stable in pH between 5 and 7; also recorded: Hydrolyzed at pH 9"}
    ]},
    {"smiles": "CC1(C)[C@H](C(=O)O[C@H](C#N)c2cccc(Oc3ccccc3)c2)[C@@H]1C=C(Br)Br", "note": "[Deltamethrin]", "values": [
      {"measurement": "Time to decompose (Mean life)", "setting": "[2]; pH 7", "value": 0.33, "unit": "days"},
      {"measurement": "Stability in aqueous medium, in words", "setting": "[2]", "value": "more stable in medium acid solutions"}
    ]},
    {"smiles": "C=CCC1=C(C)C(OC(=O)C2C(C=C(C)C)C2(C)C)CC1=O", "note": "[D-allethrin]", "values": [
      {"measurement": "Time to decompose (Mean life)", "setting": "[2]; pH 7", "value": 500, "unit": "days"},
      {"measurement": "Time to decompose (Mean life)", "setting": "[2]; pH 9", "value": "(4.3 days)"},
      {"measurement": "Stability in aqueous medium, in words", "setting": "[2]", "value": "Stable at pH 5 after 31 days"}
    ]},
    {"smiles": "CCOC(=O)CC(SP(=S)(OC)OC)C(=O)OCC", "note": "(stereo not shown) [Malathion]", "values": [
      {"measurement": "Stability in aqueous medium, in words", "setting": "[2]", "value": "Quickly hydrolyzed at pHs over 7. The optimal pH"}
    ]},
    {"smiles": "CC1(C)C(C=C(Cl)Cl)C1C(=O)OC(C#N)c1cccc(Oc2ccccc2)c1", "note": "(stereo not shown) [Cypermethrin]", "values": [
      {"measurement": "Time to decompose (Mean life)", "setting": "[2]; pH 9", "value": 7, "unit": "days"}
    ]},
    {"smiles": "CCN(CC)c1nc(C)cc(OP(=S)(OC)OC)n1", "note": "[Methyl pirimiphos]", "values": [
      {"measurement": "Time to decompose (Mean life)", "setting": "[2]; pH 5", "value": 7, "unit": "days"},
      {"measurement": "Time to decompose (Mean life)", "setting": "[2]; pH 8", "value": 5, "unit": "days"}
    ]},
    {"smiles": "CC1(C)C(C=C(Cl)Cl)C1C(=O)OCc1cccc(Oc2ccccc2)c1", "note": "(stereo not shown) [Permethrin]", "values": [
      {"measurement": "Stability in aqueous medium, in words", "setting": "[2]", "value": "Stable at pH between 5 and 6."}
    ]},
    {"smiles": "CCOP(=S)(OCC)Oc1cc(C)nc(C(C)C)n1", "note": "[Diazinon]", "values": [
      {"measurement": "Time to decompose (Mean life)", "setting": "[2]; pH 5", "value": 31, "unit": "days"},
      {"measurement": "Time to decompose (Mean life)", "setting": "[2]; pH 7.5", "value": 185, "unit": "days"},
      {"measurement": "Time to decompose (Mean life)", "setting": "[2]; pH 9", "value": 136, "unit": "days"}
    ]},
    {"smiles": "CCOP(=S)(OCC)Oc1ccc2c(C)c(Cl)c(=O)oc2c1", "note": "[Coumaphos]", "values": [
      {"measurement": "Toxicity", "setting": "[1]", "value": "Toxic"}
    ]},
    {"smiles": "CC(COc1ccc(Oc2ccccc2)cc1)Oc1ccccn1", "note": "(stereo not shown) [Pyriproxyfen]", "values": [
      {"measurement": "Stability in aqueous medium, in words", "setting": "[2]", "value": "Stable in a pH range between 4 and 9."}
    ]},
    {"smiles": "OB(O)O", "note": "[Boric acid]", "values": [
      {"measurement": "Toxicity (group)", "setting": "[1]", "value": "Group II"},
      {"measurement": "Toxicity", "setting": "[1]", "value": "Mildly toxic"}
    ]},
    {"smiles": "CCOP(=S)(OCC)Oc1nc(Cl)c(Cl)cc1Cl", "note": "[Chlorpyrifos]", "values": [
      {"measurement": "Time to decompose (Mean life)", "setting": "[2]; pH 10", "value": 7, "unit": "days"},
      {"measurement": "Stability in aqueous medium, in words", "setting": "[2]", "value": "stable in neutral and lightly"}
    ]}
  ]
}
